Measured values from patent US20210022305A1, “A HUMULUS PLANT VARIANT AND EXTRACTS THEREOF” (BOMI LLC, priority 2018, published 2021).

Tested on: liver cancer tumors (Standard Risk Hepatoblastoma)
Experiment: Liver cancer study: cisplatin alone vs cisplatin + ImmunAG, tumor size
Assay type: in vivo, human
Description: Patient Characteristics. There were 99 men and 18 women in the trial. The average age was 53, with a minimum age of 31 and a maximum age of 78. Eighty-six patients (73.5%) were preoperative TACE negative, and 31 patients (26.49%) were preoperative TACE positive. Seventeen patient (14.52%) were HBsAg negative and 100 patients (85.47%) were HBsAg positive. One hundred six patients […] were Anti-HCV negative and 11 patients […] were Anti-HCV positive. Eighteen patients […] were negative for cirrhosis and 99 patients (83.9%) were positive for cirrhosis. Preoperative alpha-fetoprotein (μg/L) was an average of 18.3 with a minimum value of 1.7 and a maximum value of 1089. Cumulative tumor size was an average of 4.89 cm with a minimum of 2.37 cm and a maximum value of 19.62 cm. Fifty-three people had 2 tumors in the liver, 52 people has 3 liver tumors and 12 people had 4 tumors. The average tumor number is […]. There were 7 cases (5.98%) of high Necrosis differentiation, 106 cases of medium (90.59%) Necrosis differentiation, and 4 cases (3.41%) of low Necrosis differentiation. […] The rest, 99 patient (84.6%) had liver capsule invasion in some form.
All these patients were suffering from Standard Risk (SR) Hepatoblastoma- and not Hepatocellular carcinoma or Cholangiocarcinoma. Of these patients, 57 of the men, and 7 of the women, had surgical resectioning of some degree. However at this point of treatment resectioning was not considered a viable option.
There were 54 men and 10 women in the Cisplatin alone treatment group. There were 45 men and 8 women in the Cisplatin+ImmunAG group. The Cisplatin alone treatment group received a dosage of 50-70 mg/m^2, every four weeks for a duration of the study. The Cisplatin+ImmunAG group received the same dosage of Cisplatin as noted above in combination with a 80 mg-600 mg/day dose of ImmunAG (composition comprising CBD, humulene, and β-caryophyllene). The exact dose of ImmunAG was determined based on patient's sex and height, and was administered in three doses over the course of the day.

## N.N.[Cl][Pt][Cl] [Cisplatin]
After treatment, cisplatin 50-70 mg/m^2 every four weeks, ImmunAG 80 mg-600 mg/day
  Final tumor sizes, Mean: 5.659
Before treatment, liver tumors of patients
  Initial tumor sizes, Mean: 4.851
Final vs initial
  Change of mean tumors: 17%
Final vs initial = 1
  Mean tumors relative to initial (from 1): 1.17
